Test results taken from patent publication US4434096A, “Substrates for the quantitative determination of proteolytic enzymes” (E. I. Du Pont de Nemours and Company, priority 1981, dated 1984).
Square brackets hold non-standard residues; d marks the D form. Peptide text beside a SMILES is read from it. * marks the point of attachment. SBn = c1ccc(CS*)cc1

Biological target: human α-thrombin (Homo sapiens, UniProt P00734)
Assay: Kinetics of substrate hydrolysis by proteolytic enzyme (initial rates, centrifugal analyzer, Hanes plot)
Type: biochemical
Settings: substrate for human α-thrombin
From the text: The Michaelis-Menten constant, Km, is a kinetic parameter related to the affinity of a substrate for an enzyme under a given set of reaction conditions. The Km is defined as the substrate concentration at which the initial reaction velocity is one-half of the maximal initial reaction velocity. The maximal velocity (vmax), another important kinetic parameter, when divided by the enzyme concentration, yields kcat. The determination of Km and kcat for a given substrate with various enzymes allows the determination of the selectivity of that substrate for a given enzyme.
Km and vmax values can be determined by utilizing a centrifugal analyzer (GEMSAEC system, available from Electro-Nucleonics, Inc., Fairfield, N.J.) to measure the initial rates of substrate hydrolysis by the proteolytic enzyme. Five substrate concentrations ([S]), ranging from about one-fifth to five times the expected Km, can be used for triplicate determinations in this centrifugal analyzer. The initial reaction rates (v) can then be plotted in a Hanes plot, [S]/v versus [S], for a determination of Km (the absolute value of the X-intercept) and vmax (the reciprocal of the slope) through linear regression analysis. Alternative procedures are available for the calculation of Km and vmax.
For a given enzyme, lower Km values for a series of substrates indicate higher affinity of the substrate to the enzyme. This allows the utilization of lesser amounts of substrate while still operating at vmax.

SMILES	Km	kcat
CC(C)C[C@H](NC(=O)[C@H](N)C(C)C)C(=O)N[C@@H](CCCCN)C(=O)SCc1ccccc1 [H--D-Val--Leu--Lys--S--Bzl] (H-[dV]-Leu-Lys-SBn)	16 µM	94 s⁻¹
NCCCC[C@H](NC(=O)OCc1ccccc1)C(=O)SCc1ccccc1 [Z--Lys--S--Bzl]	38 µM	84 s⁻¹
